# Experiments:
# [1] = test system: isolated rat brain synaptosomes; assay: Synaptosomal viability (MTT test), compounds applied alone; format: cell-based; details: 100 µmol; for relative synaptosomal vitality (RV): synaptosomal viability relative to caffeine (1) = 1; for decrease of synaptosomal viability: applied alone, against the control (untreated synaptosomes); for neurotoxicity on synaptosomes in words: single application, compared to the control and to caffeine
# Protocol: (§1) The synaptosomes and mitochondria were prepared as explained in [54, 55] with the help of a colloidal silicon solution (Percoll): 1. Preparation of 90% stock solution of Percoll. 2. Preparation of Percoll solutions with two concentrations, 16% and 10%. An amount of 4 ml of Percoll 16% and 10% were added in the tubes. 3. An amount of 90% Percoll (7.5% Percoll) was added to the sediment from the last centrifugation. The tubes were centrifuged for 20 min at 15,000× g at 4 °C, resulting in the formation of three layers. The lower layer contained mitochondria, the upper layer, lipids and the middle layer (between 16% and 10% Percoll), synaptosomes. The middle and the lower layers of each tube were harvested and buffer B with glucose was added. The mixture was centrifuged at 10,000× g for 20 min at 4 °C. After centrifugation, the sediment with the synaptosomes and mitochondria was mixed with buffer B with glucose.
# After the incubation, the synaptosomes were centrifuged three times at 15,000× g for 1 min. An MTT test was performed to determine synaptosomal vitality by the method described in the literature. […]
# [2] = test system: isolated rat synaptosomes; assay: 6-OHDA-induced oxidative stress model, GSH level; format: cell-based; details: for GSH levels stored (protected): 6-OHDA-induced oxidative stress, against the toxic agent
# Protocol: The level of reduced glutathione was determined by measuring the non-protein SH-groups after precipitation of the proteins with trichloroacetic acid. After the incubation, synaptosomes were centrifuged at 400× g for 3 min. These diment were treated with 5% trichloroacetic acid and left for 10 min on ice. Samples were centrifuged at 8000× g for 10 min (2 °C). The supernatant was removed to determine the level of GSH and was stored at −20 °C. Immediately before the measurement, the samples were neutralized with 5 N NaOH.
# The presence of thiols in the supernatant was determined using Ellman’s reagent. The resulting yellow color was measured spectrophotometrically at λ = 412 nm.
# This in vitro model resembles the neurodegenerative processes occurring in PD. Dopamine metabolism and oxidation lead to the formation of ROS and reactive quinones. They induce dopamine neurotoxicity and neurodegeneration. The synaptosomes were incubated with 150 μmol 6-OHDA for 1 h.
# [3] = biological target: MAO-B; design: method as in PMID 19342233; details: MAO-B inhibitor activity; cited from earlier work
# [4] = test system: isolated rat brain mitochondria; assay: MDA production in isolated brain mitochondria, compounds applied alone; format: cell-based; details: 100 µmol, against the control (untreated mitochondria)
# Protocol: The synaptosomes and mitochondria were prepared as explained in [54, 55] with the help of a colloidal silicon solution (Percoll): 1. […] An amount of 4 ml of Percoll 16% and 10% were added in the tubes. 3. An amount of 90% Percoll (7.5% Percoll) was added to the sediment from the last centrifugation. The tubes were centrifuged for 20 min at 15,000× g at 4 °C, resulting in the formation of three layers. The lower layer contained mitochondria, the upper layer, lipids and the middle layer (between 16% and 10% Percoll), synaptosomes. The middle and the lower layers of each tube were harvested and buffer B with glucose was added. The mixture was centrifuged at 10,000× g for 20 min at 4 °C. After centrifugation, the sediment with the synaptosomes and mitochondria was mixed with buffer B with glucose. […] After that, the tubes were maintained in a bath filled with boiling water. Finally, the tubes were transferred to an ice bath and butanol (0.4 mL) was poured into each tube. In the next stage, centrifugation of the tubes was carried out at 3500× g for 10 min. Following that, assessment of the total quantity of MDA shaped in each sample was carried out using a spectrophotometer (UV-Vis Split) to measure the supernatant’s absorbance at 532 nm. The mitochondria were incubated with 75 µmol t-BuOOH [59]. The quantity of the lipid peroxidation product MDA was assessed, using the method, described in the literature.
# [5] = test system: isolated rat brain microsomes; assay: MDA production in isolated brain microsomes, compounds applied alone; format: cell-based; details: 100 µmol; for pro-oxidant effect (MDA production): applied alone, compared to the control (untreated microsomes); for neurotoxicity on microsomes in words: tested alone, compared to the control and to caffeine
# Protocol: The brain microsomes were prepared according to the procedure described in [61]. […] The homogenate was centrifugated at 17,000× g for 30 min. The pellet was suspended in 4 vol of the homogenization buffer and centrifuged at 17,000× g for a further period of 30 min. The supernatants from both centrifugations were combined (post-mitochondrial supernatant) and centrifuged at 100,000× g for 1 h. The pellet was resuspended in the above buffer and centrifuged at 100,000× g for 1 h. The resulting pellet was frozen in the buffer with glycerol.
# The quantity of the lipid peroxidation product MDA was assessed, using the method, described in the literature.
# Analysis of quantitative structure–neurotoxicity relationships employed the data from in vitro assessments of synaptosome viability (%) and MDA production in microsomal fractions (nmol/0.1 mg protein) as indicators for the neurotoxicity of compounds.
# [6] = test system: isolated rat synaptosomes; assay: 6-OHDA-induced oxidative stress model, synaptosomal vitality; format: cell-based; details: against the toxic agent
# Protocol: After the incubation, the synaptosomes were centrifuged three times at 15,000× g for 1 min. An MTT test was performed to determine synaptosomal vitality by the method described in the literature [56]. […] The synaptosomes were incubated with 150 μmol 6-OHDA for 1 h [58].
# [7] = biological target: T1, human recombinant MAO-B enzyme (hMAOB) (Homo sapiens, UniProt P27338); assay: Monoamine oxidase B activity, fluorimetric Amplex Ultra Red assay, tyramine substrate; format: biochemical; details: 1 µmol, applied alone, against the control (pure hMAOB)
# T1 sequence (P27338 1-520): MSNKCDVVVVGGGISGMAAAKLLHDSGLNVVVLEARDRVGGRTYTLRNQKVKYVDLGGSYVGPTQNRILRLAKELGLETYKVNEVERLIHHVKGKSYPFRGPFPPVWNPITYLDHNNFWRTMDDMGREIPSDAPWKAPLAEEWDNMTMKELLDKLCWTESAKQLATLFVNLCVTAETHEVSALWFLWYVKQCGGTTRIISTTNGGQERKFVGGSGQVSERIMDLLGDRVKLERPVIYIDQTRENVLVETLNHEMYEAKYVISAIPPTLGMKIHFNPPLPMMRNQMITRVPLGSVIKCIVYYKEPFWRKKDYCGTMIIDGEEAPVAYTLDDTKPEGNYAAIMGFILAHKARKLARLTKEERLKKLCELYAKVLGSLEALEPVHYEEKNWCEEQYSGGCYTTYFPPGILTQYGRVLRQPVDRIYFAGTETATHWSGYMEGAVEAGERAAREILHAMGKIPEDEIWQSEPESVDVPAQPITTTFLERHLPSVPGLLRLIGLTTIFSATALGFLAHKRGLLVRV
# Protocol: Monoamine oxidase activity assay of recombinant human MAO-B was performed using a fluorimetric method by Amplex Ultra Redreagent [63]. Tyramine hydrochloride was used as substrate.
# The MAO-B activity was normalized as a percentage of the untreated control set as 100% and the results were expressed as mean values and standard deviation (±SD). Statistical analysis was performed by one-way analysis of variance (ANOVA) with a post hoc multiple comparisons procedure (Dunnet’s test) to assess the statistical differences in case of normal distribution. Values of p < 0.05, p < 0.01 and p < 0.001 were considered as statistically significant.
# [8] = test system: isolated rat microsomes; assay: Fe2+/AA-induced lipid peroxidation model, MDA production; format: cell-based; details: 100 µmol, compared to the toxic agent
# Protocol: The microsomes were pre-incubated with the analyzed compounds for 15 min at 37 °C. The reaction was started with a solution of iron sulphate 20 μmol and ascorbic acid 0.5 mmol. […] After starting the reaction, the LPO and the MDA quantity was assessed [62].
# The quantity of the lipid peroxidation product MDA was assessed, using the method, described in the literature [62].
# [9] = test system: isolated rat brain mitochondria; assay: GSH level in isolated brain mitochondria, compounds applied alone; format: cell-based; details: 100 µmol, against the control (untreated mitochondria)
# Protocol: as §1
# The DNTB spectrophotometric technique explained in [60] was applied for GSH content measurement in brain mitochondria. Then, 0.04% DTNB was mixed with the mitochondrial suspensions (0.5 mg protein/mL) in 0.1 mol/L of phosphate buffers (pH 7.4). The development of the yellow color was read at 412 nm (spectrophotometer UV-Vis Split).
structure (smiles),measurement,setting,value
Cc1cc(C)c(C=NNC(=O)CCSc2nc3c(c(=O)n(C)c(=O)n3C)n2C)c(C)c1 [6m],relative synaptosomal vitality (RV),[1],0.716
COc1cccc(C=NNC(=O)CCSc2nc3c(c(=O)n(C)c(=O)n3C)n2C)c1O [6n],relative synaptosomal vitality (RV),[1],0.689
COc1cc(C=NNC(=O)CCSc2nc3c(c(=O)n(C)c(=O)n3C)n2C)cc(OC)c1O [6i],relative synaptosomal vitality (RV),[1],0.743
"NCCc1cc(O)c(O)cc1O [6-OHDA, 6-hydroxydopamine, reference compound]",decrease of GSH levels by the toxic agent,"[2]; 6-OHDA applied alone (150 μmol, 1 h), against the control (untreated synaptosomes)",50%
Cn1c(=O)c2c(nc(SCCC(=O)NN=Cc3cccc([N+](=O)[O-])c3)n2C)n(C)c1=O [6o],relative synaptosomal vitality (RV),[1],0.757
Cn1c(=O)c2c(nc(SCCC(=O)NN=Cc3cccc(Cl)c3)n2C)n(C)c1=O [6d],relative synaptosomal vitality (RV),[1],0.730
COc1cc(C=NNC(=O)CCSc2nc3c(c(=O)n(C)c(=O)n3C)n2C)cc(OC)c1OC [6h],relative synaptosomal vitality (RV),[1],0.703
"Cn1c(=O)c2c(ncn2C)n(C)c1=O [compound 1, caffeine, reference compound]",Ki,[3],3.6 mM
same,change of MDA production,[4],did not change statistically significantly
same,GSH levels stored (protected),[2],30%
same,decrease of synaptosomal viability,[1],26%
same,neurotoxicity on synaptosomes in words,[1],lowest neurotoxicity
same,pro-oxidant effect (MDA production),[5],did not show any statistically significant pro-oxidant effect
same,neurotoxicity on microsomes in words,[5],lowest neurotoxicity
Cn1c(=O)c2c(nc(SCCC(=O)NN=Cc3ccccc3)n2C)n(C)c1=O [6a],relative synaptosomal vitality (RV),[1],0.743
COc1cc(C=NNC(=O)CCSc2nc3c(c(=O)n(C)c(=O)n3C)n2C)ccc1O [6j],relative synaptosomal vitality (RV),[1],0.730
Cn1c(=O)c2c(nc(SCCC(=O)NN=Cc3ccc(C(F)(F)F)cc3)n2C)n(C)c1=O [6f],relative synaptosomal vitality (RV),[1],0.757
Cn1c(=O)c2c(nc(SCCC(=O)NN=Cc3ccc(Br)cc3)n2C)n(C)c1=O [6e],relative synaptosomal vitality (RV),[1],0.743
COc1ccc(C=NNC(=O)CCSc2nc3c(c(=O)n(C)c(=O)n3C)n2C)cc1OC [6g],relative synaptosomal vitality (RV),[1],0.716
"COc1cccc(C=NNC(=O)CCSc2nc3c(c(=O)n(C)c(=O)n3C)n2C)c1OC [6k, N′-(2,3-dimethoxybenzylidene)-3-(1,3,7-trimethyl-2,6-dioxo-2,3,6,7-tetrahydro-1H-purin-8-ylthio)propanehydrazide]",protection of synaptosomal vitality,[6],20%
same,inhibition of hMAOB activity,[7],25%
same,change of MDA production,[4],did not change statistically significantly
same,GSH levels stored (protected),[2],20%
same,reduction of MDA production,[8],38%
same,decrease of synaptosomal viability,[1],29%
same,neurotoxicity on synaptosomes in words,[1],lowest neurotoxicity
same,relative synaptosomal vitality (RV),[1],0.959
same,pro-oxidant effect (MDA production),[5],did not show any statistically significant pro-oxidant effect
same,neurotoxicity on microsomes in words,[5],lowest neurotoxicity
"Cn1c(=O)c2c(nc(SCCC(=O)NN=Cc3ccccc3O)n2C)n(C)c1=O [6l, N′-(2-hydroxybenzylidene)-3-(1,3,7-trimethyl-2,6-dioxo-2,3,6,7-tetrahydro-1H-purin-8-ylthio)propanehydrazide]",neurotoxic effect on GSH level,[9],did not show any statistically significant neurotoxic effect
same,protection of synaptosomal vitality,[6],36%
same,inhibition of hMAOB activity,[7],30%
same,change of MDA production,[4],did not change statistically significantly
same,GSH levels stored (protected),[2],42%
same,reduction of MDA production,[8],50%
same,decrease of synaptosomal viability,[1],28%
same,neurotoxicity on synaptosomes in words,[1],lowest neurotoxicity
same,relative synaptosomal vitality (RV),[1],0.973
same,pro-oxidant effect (MDA production),[5],did not show any statistically significant pro-oxidant effect
same,neurotoxicity on microsomes in words,[5],lowest neurotoxicity
Cn1c(=O)c2c(nc(SCCC(=O)NN=Cc3ccc([N+](=O)[O-])cc3)n2C)n(C)c1=O [6b],relative synaptosomal vitality (RV),[1],0.703
Cn1c(=O)c2c(nc(SCCC(=O)NN=Cc3c(Cl)cccc3Cl)n2C)n(C)c1=O [6c],relative synaptosomal vitality (RV),[1],0.689

# — PMC9414684, “Quantitative Structure–Neurotoxicity Assessment and In Vitro Evaluation of Neuroprotective and MAO-B Inhibitory Activities of Series N′-substituted 3-(1,3,7-trimethyl-xanthin-8-ylthio)propanehydrazides” (Molecules, 2022)
